US20250248980A1, “IMMUNE MODULATORY AGENTS” (PRESIDENT AND FELLOWS OF HARVARD COLLEGE, priority 2022, published 2025)
Entries after “also recorded” stand apart in the source; their conditions may differ. Where two headings read alike, the source gives them in different places.

How the values were obtained:
Assay type in all cases: cell-based
[1] = molecular target: T1, TNF-a receptor (TNF-R1 reporter cells) (Homo sapiens, UniProt P19438); test: TNF-a-receptor GFP reporter cell screen; conditions: reducing TNF-a-receptor reporter activities; for IC50: GFP percentage by microscope, 48 hours; for Emax: maximal effect at high compound concentrations
T1 construct: expressed in transfected cells; development described in WO2022125865A2
Protocol: (§1) FIG. 5 is a dot plot showing the identification of small-molecule compounds that reduce IL-17A or TNF-a receptor activities. Small-molecule screens were performed with 114,665 compounds. Individual compounds were added to IL-17A-reporters or TNF-a-reporters following the addition of respective ligands such as IL-17A or TNF-a (25 ng/ml). The reporter cells were then incubated for additional 48 hours before subjecting them for microscopic analyses (GFP percentage was measured by microscope). Anti-IL17A and anti-TNFa antibodies were used as the positive controls.
The IL-17RA/IL-17RC reporter system was used to identify the IL-17a-specific immune modulatory agents, as described herein (see e.g., compounds (1)-(16)). Furthermore, the IL-17A systems and methods were applied to generate other cytokine/cytokine receptor reporter system (tTA fused onto one receptor subunit via a protease cleavage site, TEV fused to another receptor subunit, optimal linkers inserted between different proteins to ensure high signal-to-background ratio; e.g., for identifying TNF-α-specific immune modulatory agents). The screening platform provided herein was used to identify immune modulatory agents including, but not limited to, small molecules and proteins that modulate IL-17A or TNF-α cytokine signaling.
(§2) Two thousand reporter cells per well (384-well plates) were seeded in 30 ul cell culture medium with either IL-17A (25 ng/ml, unless otherwise indicated) or TNFa ligand (25 ng/ml, unless otherwise indicated); additional screens were performed with IL-17A at 7.5 ng/ml. Then 100 nl of the individual compound was added by a pin transfer and cultured for two days in a CO2 incubator. For the cell viability test, 10 ul HOECHST 33342 was added and incubated for 10 min, followed by the addition of 10 ul 4% PFA. After a 10 min incubation, the reporter cells were washed twice with phosphate-buffered saline (PBS) and kept in 30 ul PBS. The images were acquired and analyzed using an IMAGEXPRESS confocal microscope. For storage, plates were sealed with black light-absorbing films.

[2] = molecular target: T2, IL-17 receptor (the IL-17RA-IL-17RC heterodimer) (Mus musculus, UniProt Q60943+Q8K4C2, F156E); test: IL-17A-receptor (IL-17RA/IL-17RC) GFP reporter cell screen; conditions: for IC50 / Emax: reducing IL-17A-receptor reporter activities; for IC50: GFP percentage by microscope, 48 hours; for Emax: maximal effect at high compound concentrations; for specificity for IL-17A-receptor reporter over other cytokine receptor reporters: in words
T2 sequence (Q60943 32-358): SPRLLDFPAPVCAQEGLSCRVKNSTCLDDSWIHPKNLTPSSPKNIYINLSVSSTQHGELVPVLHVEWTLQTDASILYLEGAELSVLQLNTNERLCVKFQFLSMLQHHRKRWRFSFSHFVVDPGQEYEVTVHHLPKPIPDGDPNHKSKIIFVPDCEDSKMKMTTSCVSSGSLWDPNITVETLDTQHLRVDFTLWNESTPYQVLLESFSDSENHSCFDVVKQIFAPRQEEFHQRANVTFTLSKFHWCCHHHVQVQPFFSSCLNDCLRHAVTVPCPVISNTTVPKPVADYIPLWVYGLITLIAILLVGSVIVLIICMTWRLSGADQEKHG
T2 sequence (Q8K4C2 22-500 F156E): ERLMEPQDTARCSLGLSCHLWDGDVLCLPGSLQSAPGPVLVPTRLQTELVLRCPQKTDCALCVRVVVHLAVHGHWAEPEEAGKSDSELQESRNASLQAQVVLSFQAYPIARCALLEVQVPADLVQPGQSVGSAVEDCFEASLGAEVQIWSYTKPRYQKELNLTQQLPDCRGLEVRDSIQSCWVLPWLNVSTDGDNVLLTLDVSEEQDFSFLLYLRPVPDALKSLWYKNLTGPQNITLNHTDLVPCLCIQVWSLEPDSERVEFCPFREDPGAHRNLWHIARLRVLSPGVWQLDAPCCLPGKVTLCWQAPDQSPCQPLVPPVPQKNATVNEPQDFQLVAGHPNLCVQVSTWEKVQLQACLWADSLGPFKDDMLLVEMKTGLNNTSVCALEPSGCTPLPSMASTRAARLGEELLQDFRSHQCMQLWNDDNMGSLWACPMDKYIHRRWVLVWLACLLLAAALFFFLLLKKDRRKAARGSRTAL
T2 sequence (Q62386 26-158 partner): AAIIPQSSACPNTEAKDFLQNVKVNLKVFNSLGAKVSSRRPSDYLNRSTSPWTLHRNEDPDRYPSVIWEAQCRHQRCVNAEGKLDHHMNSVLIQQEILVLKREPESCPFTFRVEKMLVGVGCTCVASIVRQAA
Protocol: as §1
To identify small molecule compounds that control IL-17R activity, a screening platform was used to monitor IL-17a binding to its receptor. Upon IL-17a binding to its receptor subunit A (IL-17RA), another receptor subunit IL-17RC is recruited, and these two subunits form a heterodimer. In the exemplary reporter system, a transcription factor (tTA) was tethered, via a protease cleavage site, to IL-17RA. In addition, a tobacco etch virus (TEV) protease was fused to the receptor subunit IL-17RC. Upon the IL-17a-dependent recruitment of IL-17RC-TEV to IL-17RA-tTA, the tTA is cleaved off from its membrane anchor IL-17RA. The released tTA then enters the nucleus and activates the reporter gene (e.g., in this case, GFP). The IL-17RA/RC reporter system responds highly selectively to IL-17a, but not to other related IL-17 family cytokines (except IL-17f).
as §2

[3] = tested on: IL17A-dependent gene expression in mouse keratinocytes; test: IL17A-dependent gene expression in mouse keratinocytes (RT-qPCR, secondary assay, FIG. 11); conditions: 10 μM compound, 5 ng/ml IL17A, 24 hours
Protocol: Mouse keratinocytes were cultured and stimulated with 5 ng/ml IL17A for 24 hours. During the treatment, 10 μM of each compound was added, and reverse transcription-quantitative polymerase chain reaction (RT-qPCR) was used for the gene expression level analyses of the following genes: cxcl1, cxcl2, cxcl5, 24p3, zc3h12a, S100a8, and S100a9. The top-down order of the treatment conditions indicated in the legend correspond to the left-right order of the bars for each gene. […] Compounds C770-0711 (2), C770-0720 (3), 60546479 (6), C881-0413 (9), and LAS 51593897 (11) are also of interest (see grey boxes).

Row | SMILES | IC50 [1] | Emax [1] | further results
1 | COc1cc(NC(=O)C(Cc2ccccc2)NS(=O)(=O)c2cccs2)cc(OC)c1 (centres unmarked) [Compound 35] | 2560 nM | 97% | 
2 | COc1cccc(-c2nn(-c3ccccc3)cc2CN2CCC(NC(C)=O)C2)c1 (centres unmarked) [Compound 24] | 610 nM | 75% | 
3 | CCc1ccc(S(=O)(=O)c2c(C(=O)c3ccccc3)cnc3ccc(CC)cc23)cc1 [Compound 1] |  |  | IC50 [2]: 4810 nM; Emax [2]: 78%
4 | CC(C)(CO)CNC1CC(C)(C)Cc2c1cnn2-c1cccc(F)c1 (centres unmarked) [Compound 63] | 1780 nM | 65% | 
5 | O=C(Nc1ccc(Cl)cc1Cl)c1cc(S(=O)(=O)N2CCCCCC2)ccc1F [Compound 7] |  |  | IC50 [2]: 15000 nM; Emax [2]: 57%
6 | CC(C)Oc1ccccc1-c1cccc(C(=O)NCCc2nncn2C)c1 [Compound 57] | 2340 nM | 47% | 
7 | COc1cc(CN2CCCC(CNC(=O)COc3ccccc3OC)C2)ccc1F (centres unmarked) [Compound 49] | 791 nM | 87% | 
8 | CC(C)C1N=C2c3ccccc3N=C(SCC(=O)NCc3ccc(F)cc3)N2C1=O (centres unmarked) [Compound 61] | 8780 nM | 88% | 
9 | O=C(NCCNC(=O)C(c1ccc(F)cc1)N1CCCCC1)c1ccccc1Cl (centres unmarked) [Compound 25] | 1670 nM | 52% | 
10 | COc1cccc(CNC(=O)CSC2=Nc3ccccc3N=C(c3ccc(F)cc3)C2)c1 [Compound 12] | 6300 nM | 32% | 
11 | CC(C)CN1CCc2[nH]cnc2C12CCN(C(=O)c1cccc(F)c1)CC2 [Compound 27] | 2160 nM | 66% | 
12 | CCc1ccccc1NC(=O)CN1C(=O)COc2ccc(S(=O)(=O)Nc3ccccc3)cc21 [Compound 16] | 1580 nM | 75% | 
13 | O=C(c1ccccc1OC(F)(F)C(F)F)N1CCNC(=O)C12CCCC2 [Compound 76] | 1360 nM | 64% | 
14 | CCOc1ccc(S(=O)(=O)c2c(C(=O)c3ccc(CC)cc3)cnc3ccc(C)cc23)cc1 [Compound 3] |  |  | IC50 [2]: 12200 nM; Emax [2]: 44%; effect on IL17A-dependent gene expression [3]: inhibitory activities
15 | Cc1ccc(Cn2c(CNS(=O)(=O)c3ccc(F)c(Cl)c3)nc3cccnc32)cc1 [Compound 45] | 1300 nM | 67% | 
16 | O=C(NCc1cccc(Cl)c1)C1(Cc2cscn2)CC2CCC1N2 (centres unmarked) [Compound 48] | 3620 nM | 68% | 
17 | O=C(NC1(CN2CCOCC2)CCCCC1)c1ccccc1N1CCOCC1 [Compound 40] | 2160 nM | 76% | 

Row | SMILES | IC50 [1] | Emax [1] | further results
18 | CCOc1ccc(S(=O)(=O)c2c(C(=O)c3ccc(C)c(C)c3)cnc3ccccc23)cc1 [Compound 2] |  |  | IC50 [2]: 31400 nM; Emax [2]: 82%; effect on IL17A-dependent gene expression [3]: inhibitory activities
19 | COc1ccc(NC(=O)C(NS(=O)(=O)c2cccc3nsnc23)c2ccccc2)cc1 (centres unmarked) [Compound 38] | 3990 nM | 91% | 
20 | CCOC(=O)c1ccc(NC(=O)CCc2c(C)nc3c(c(C)nn3C)c2C)cc1 [Compound 8] |  |  | specificity for IL-17A-receptor reporter over other cytokine receptor reporters [2]: reduce IL-17A-, not TNF-a-, receptor reporter activities; Emax ([2]; read-out: Emax): 94%; effect on IL17A-dependent gene expression [3]: inhibitory activities; also recorded: robust inhibitory effects
21 | CCCN(C/C=C/c1ccccc1)C(=O)CCc1cc2n(n1)CCCNC2 [Compound 52] | 8450 nM | 90% | 
22 | CN(Cc1ccc2nonc2c1)C(=O)C(c1ccc(F)cc1)N1CCCCC1 (centres unmarked) [Compound 17] | 1460 nM | 66% | 
23 | COc1cc(C(=O)NCCc2csc3nc(-c4ccccc4C)nn23)cc(OC)c1OC [Compound 64] | 4850 nM | 93% | 
24 | COc1ccc(NC(=O)CSc2nc3ccccc3n2CC(=O)N(C)C2CCCCC2)cc1 [Compound 60] | 6980 nM | 88% | 
25 | CCc1ccc(S(=O)(=O)c2c(C(=O)c3ccc(C)c(C)c3)cnc3ccccc23)cc1 [Compound 5] |  |  | IC50 [2]: 6820 nM; Emax [2]: 57%
26 | COCCn1ccnc1CN(CCO)CCCOc1ccc(Cl)cc1Cl [Compound 13] | 1950 nM | 42% | 
27 | O=c1n(Cc2cccc3ccccc23)nc(C2CCCNC2)n1-c1ccccc1 (centres unmarked) [Compound 62] | 1820 nM | 60% | 
28 | CCN1CCOc2ccccc2CCCC2(CN(C(=O)c3cc(-c4ccccc4F)no3)CCO2)C1=O (racemic) [Compound 11] |  |  | effect on IL17A-dependent gene expression [3]: robust inhibitory effects
29 | O=C(CSC1=Nc2ccccc2N=C(c2ccc(F)cc2)C1)NCc1ccc(F)cc1 [Compound 23] | 5300 nM | 76% | 
30 | CCOC(=O)c1ccccc1NC(=O)N1CCCN(S(=O)(=O)c2ccc3c(ccn3CC)c2)CC1 [Compound 36] | 7720 nM | 92% | 
31 | Oc1cccc(CN2CCCC(NCc3cc(-c4ccccc4)no3)C2)c1 (centres unmarked) [Compound 51] | 823 nM | 85% | 
32 | Cc1ccc(NC(=O)Cn2cc3c(n2)CCCC3)cc1Cl [Compound 9] |  |  | specificity for IL-17A-receptor reporter over other cytokine receptor reporters [2]: reduce IL-17A-, not TNF-a-, receptor reporter activities; Emax ([2]; read-out: Emax): 67%; effect on IL17A-dependent gene expression [3]: inhibitory activities; also recorded: robust inhibitory effects
33 | Cc1ccc(Cn2c(CNS(=O)(=O)c3ccc(Cl)s3)nc3cccnc32)cc1 [Compound 34] | 860 nM | 64% | 
34 | CS(=O)(=O)c1ccc(C2(C(=O)N3CCSCC3)CCCCC2)cc1 [Compound 41] | 5890 nM | 98% | 
